Assay [1] addresses T1, TdcF (Escherichia coli, UniProt P0AGL2).
T1 construct: recombinant, N-terminal His-tag not cleaved; homotrimer, 14 kDa subunits; ligand sites at subunit interfaces; Cys-36 seen as cysteine sulfonic acid in crystals
As to the kind of experiment: X-ray crystal structure, crystal soak. As to conditions: 1 mM soak, 2 h, pH 8. It is filed as binding.

In assay [2] the target is T1, TdcF. As to the kind of experiment: X-ray crystal structure, no ligand added (as isolated). It is filed as binding. The note with it: 1.6 Å; inter-subunit site C only; putative identity from density, threonine an alternative.

T1 sequence (P0AGL2 whole entry): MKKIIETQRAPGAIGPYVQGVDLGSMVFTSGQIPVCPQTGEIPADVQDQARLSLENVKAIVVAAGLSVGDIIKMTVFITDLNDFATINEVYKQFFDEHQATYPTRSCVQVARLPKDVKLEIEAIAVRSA

Take `CCC(=O)C(=O)O` [2KT, 2-ketobutyrate]: the “X-ray crystal structure, crystal soak” value in assay [1] (1.6 Å, inter-subunit sites A, B and C occupied) was “clear density for a 2-ketobutyrate ligand in each of the three binding sites”.
Take `CCC(=O)O` [PPI, propionate]: the “X-ray crystal structure, crystal soak” value in assay [1] (2.45 Å, inter-subunit sites B and C occupied) is recorded as “a propionate molecule could be placed with confidence in both”.
For the compound `N[C@@H](CO)C(=O)O` [SER, serine], the “X-ray crystal structure, no ligand added (as isolated)” value in assay [2] was “with serine as the ligand with its side-chain in two alternative conformations of equal occupancy”.

Values taken from PMC1884159, “The crystal structure of Escherichia coli TdcF, a member of the highly conserved YjgF/YER057c/UK114 family” (BMC Structural Biology, 2007).
